This passage reports Ki and IC50 results from US7998965B2, “Glutamate aggrecanase inhibitors” (Wyeth LLC, priority 2005, dated 2011).

The experiment has as its target T1, purified recombinant human Aggrecanase-1 (rAgg1) (Homo sapiens, UniProt O75173).
T1 sequence (O75173 213-837): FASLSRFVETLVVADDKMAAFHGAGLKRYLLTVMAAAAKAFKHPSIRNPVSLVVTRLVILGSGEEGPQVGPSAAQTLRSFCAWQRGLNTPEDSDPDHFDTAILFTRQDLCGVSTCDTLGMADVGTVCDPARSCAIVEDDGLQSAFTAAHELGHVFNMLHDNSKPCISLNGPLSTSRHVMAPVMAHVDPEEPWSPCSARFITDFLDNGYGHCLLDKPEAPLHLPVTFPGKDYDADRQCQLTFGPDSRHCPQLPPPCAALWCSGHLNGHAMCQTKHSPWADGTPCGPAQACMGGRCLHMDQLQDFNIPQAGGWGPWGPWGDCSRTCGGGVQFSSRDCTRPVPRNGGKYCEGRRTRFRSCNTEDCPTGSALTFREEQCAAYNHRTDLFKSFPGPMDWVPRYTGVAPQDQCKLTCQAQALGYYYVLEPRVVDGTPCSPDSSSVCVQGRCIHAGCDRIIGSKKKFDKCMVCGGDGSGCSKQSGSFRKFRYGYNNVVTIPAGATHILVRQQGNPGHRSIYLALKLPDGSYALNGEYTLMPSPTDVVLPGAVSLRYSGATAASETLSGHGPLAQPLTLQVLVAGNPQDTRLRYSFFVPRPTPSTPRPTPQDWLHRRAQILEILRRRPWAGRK
Put plainly: In vitro fluorescence screen for Aggrecanase-1 inhibitors. The experiment is classed as biochemical. To be noted: Table 1; for IC50: read-out: Agg1 IC50.

On to `CCCCCCNC(=O)[C@H](CCC(=O)O)NC(=O)c1ccc2c(c1)Cc1ccccc1-2` [Example 8OOOO, N^2-(9H-fluoren-2-ylcarbonyl)-N^1-hexyl-L-α-glutamine], for which the IC50 (usually the concentration needed to halve the response being measured) is 52 nM. Where the note is “enzyme not given, column follows Agg1 IC50, read-out: Ki”, the Ki (commonly a measure of affinity in units of concentration, obtained from inhibition or displacement) was determined as 60 nM.
Take `CC(=O)NCCNC(=O)[C@H](CCC(=O)O)NC(=O)c1ccc(-c2ccccc2)cc1` [Example 8OOOOOO, N^1-[2-(acetylamino)ethyl]-N^2-(1,1′-biphenyl-4-ylcarbonyl)-L-α-glutamine]: the IC50 worked out at 670 nM.
Same read-out and setting: next, `O=C(O)CC[C@H](NC(=O)c1ccc(-c2ccccc2)cc1)C(=O)NCc1ccco1` [Example 8P, N^2-(1,1′-biphenyl-4-ylcarbonyl)-N^1-(2-furylmethyl)-L-α-glutamine]: 290 nM.
On to `CC(C)NC(=O)[C@H](CCC(=O)O)NC(=O)c1ccc(-c2ccccc2)cc1` [Example 8PPP, N^2-(biphenyl-4-ylcarbonyl)-N^1-isopropyl-L-α-glutamine], for which the IC50 was determined as 130 nM.
Regarding `CCCCCCNC(=O)[C@H](CCC(=O)O)NC(=O)c1cccc2c1Cc1ccccc1-2` [Example 8PPPP, N^2-(9H-fluoren-1-ylcarbonyl)-N^1-hexyl-L-α-glutamine], the IC50 was above 50000 nM.
The same measure, in the same setting: with `COc1cccc(CNC(=O)[C@H](CCC(=O)O)NC(=O)Cc2ccc(-c3ccccc3)cc2)c1` [Example 8PPPPPP, N^2-(1,1′-biphenyl-4-ylacetyl)-N^1-(3-methoxybenzyl)-L-α-glutamine] the figure was above 33000 nM; with `O=C(O)CC[C@H](NC(=O)c1ccc(-c2ccccc2)cc1)C(=O)NCc1ccncc1` [Example 8QQQ, N^2-(biphenyl-4-ylcarbonyl)-N^1-(pyridin-4-ylmethyl)-L-α-glutamine], 330 nM.
Take `CCCCCCNC(=O)[C@H](CCC(=O)O)NC(=O)c1ccc(Oc2ccccc2)cc1` [Example 8QQQQ, N^1-hexyl-N^2-(4-phenoxybenzoyl)-L-α-glutamine]: the IC50 worked out at 9600 nM.
On to `O=C(O)CC[C@H](NC(=O)c1ccc(-c2ccccc2)cc1)C(=O)Nc1ccccc1Cc1ccccc1` [Example 8QQQQQQ, N^1-(2-benzylphenyl)-N^2-(1,1′-biphenyl-4-ylcarbonyl)-L-α-glutamine], for which the IC50 worked out at 690 nM.
Same read-out and setting: with `CCCCCCNC(=O)[C@H](CCC(=O)O)NC(=O)c1ccc2c(c1)C(=O)c1ccccc1-2` [Example 8RRRR, N^1-hexyl-N^2-[(9-oxo-9H-fluoren-2-yl)carbonyl]-L-α-glutamine] the figure was 122 nM; with `O=C(O)CC[C@H](NC(=O)c1ccc2ccccc2c1)C(=O)NCCCc1ccccc1` [Example 8RRRRRR, N^2-2-naphthoyl-N^1-(3-phenylpropyl)-L-α-glutamine], 3600 nM.
Same read-out and setting: with `O=C(O)CC[C@H](NC(=O)c1ccc(C(=O)c2ccccc2)cc1)C(=O)NCc1ccccc1` [Example 8SSSS, N^2-(4-benzoylbenzoyl)-N^1-benzyl-L-α-glutamine] the figure was above 200000 nM; with `O=C(O)CC[C@H](NC(=O)c1ccc2c(c1)C(=O)c1ccccc1-2)C(=O)NCCCc1ccccc1` [Example 8SSSSSS, N^2-[(9-oxo-9H-fluoren-2-yl)carbonyl]-N^1-(3-phenylpropyl)-L-α-glutamine], 146 nM.
Same read-out and setting: next, `O=C(O)CC[C@H](NC(=O)c1ccc(-c2ccccc2)cc1)C(=O)NCCc1ccccc1F` [Example 8TT, N^2-(biphenyl-4-ylcarbonyl)-N^1-[2-(2-fluorophenyl)ethyl]-L-α-glutamine]: 300 nM; `CC(C)(NC(=O)[C@H](CCC(=O)O)NC(=O)c1ccc(-c2ccccc2)cc1)c1ccccc1` [Example 8TTT, N^2-(biphenyl-4-ylcarbonyl)-N^1-(1-methyl-1-phenylethyl)-L-α-glutamine]: above 10000 nM; `O=C(O)CC[C@H](NC(=O)c1ccc(Oc2ccccc2)cc1)C(=O)NCCCc1ccccc1` [Example 8TTTTTT, N^2-(4-phenoxybenzoyl)-N^1-(3-phenylpropyl)-L-α-glutamine]: 17300 nM.
On to `O=C(O)CC[C@H](NC(=O)c1ccc(-c2ccccc2)cc1)C(=O)NCCc1ccc(Cl)cc1` [Example 8UU, N^2-(biphenyl-4-ylcarbonyl)-N^1-[2-(4-chlorophenyl)ethyl]-L-α-glutamine], for which the IC50 was found to be 200 nM.
Same read-out and setting: with `O=C(O)CC[C@H](NC(=O)c1ccc(Nc2ncccn2)cc1)C(=O)NCc1ccccc1` [Example 8UUUUUU, N^1-benzyl-N^2-[4-(pyrimidin-2-ylamino)benzoyl]-L-α-glutamine] the figure was 4000 nM.
Same read-out and setting: next, `O=C(O)CC[C@H](NC(=O)c1ccc2c(c1)Cc1ccccc1-2)C(=O)NCCCCCCO` [Example 8VVVVVV, N^2-(9H-fluoren-2-ylcarbonyl)-N^1-(6-hydroxyhexyl)-L-α-glutamine]: 46 nM; `O=C(O)CC[C@H](NC(=O)c1ccc(-c2ccccc2)cc1)C(=O)NCc1cccc(F)c1` [Example 8XX, N^2-(1,1′-biphenyl-4-ylcarbonyl)-N^1-(3-fluorobenzyl)-L-α-glutamine]: 300 nM.
In the case of `O=C(O)CC[C@H](NC(=O)c1ccc(-c2ccccc2)cc1)C(=O)NCc1ccccc1F` [Example 8ZZ, N^2-(1,1′-biphenyl-4-ylcarbonyl)-N^1-(2-fluorobenzyl)-L-α-glutamine], the IC50 is 210 nM.
Turning to `O=Cc1ccc(-c2ccc(CCNC(=O)[C@H](CCC(=O)O)NC(=O)c3ccc(-c4ccccc4)cc3)cc2)cc1` [Example 9, N^2-(biphenyl-4-ylcarbonyl)-N^1-[2-(4′-formylbiphenyl-4-yl)ethyl]-L-α-glutamine], the IC50 is 200 nM.
On the same count and under the same terms, with `COc1ccc(-c2ccc(CCNC(=O)[C@H](CCC(=O)O)NC(=O)c3ccc(-c4ccccc4)cc3)cc2)cc1` [Example 10B, N^2-(biphenyl-4-ylcarbonyl)-N^1-[2-(4′-methoxybiphenyl-4-yl)ethyl]-L-α-glutamine] the figure was 150 nM.
On to `CCOc1ccccc1-c1ccc(CCNC(=O)[C@H](CCC(=O)O)NC(=O)c2ccc(-c3ccccc3)cc2)cc1` [Example 10E, N^2-(biphenyl-4-ylcarbonyl)-N^1-[2-(2′-ethoxybiphenyl-4-yl)ethyl]-L-α-glutamine], for which the IC50 worked out at 370 nM.
Turning to `O=C(O)CC[C@H](NC(=O)c1ccc(-c2ccccc2)cc1)C(=O)NCCc1ccc(-c2ccncc2)cc1` [Example 10H, N^2-(biphenyl-4-ylcarbonyl)-N^1-[2-(4-pyridin-4-ylphenyl)ethyl]-L-α-glutamine], the IC50 came to 300 nM.
`O=C(O)CC[C@H](NC(=O)c1ccc(-c2ccccc2)cc1)C(=O)NCCc1cccc(-c2ccccn2)c1` [Example 10I, N^2-(biphenyl-4-ylcarbonyl)-N^1-[2-(3-pyridin-2-ylphenyl)ethyl]-L-α-glutamine]: the IC50 worked out at 320 nM.
The same measure, in the same setting: next, `O=Cc1ccc(-c2cccc(CCNC(=O)[C@H](CCC(=O)O)NC(=O)c3ccc(-c4ccccc4)cc3)c2)cc1` [Example 10J, N^2-(biphenyl-4-ylcarbonyl)-N^1-[2-(4′-formylbiphenyl-3-yl)ethyl]-L-α-glutamine]: 260 nM; `O=C(O)CC[C@H](NC(=O)c1ccc(-c2ccccc2)cc1)C(=O)NCc1cccc(-c2ccc(C(F)(F)F)cc2)c1` [Example 10O, N^2-(biphenyl-4-ylcarbonyl)-N^1-{[4′-(trifluoromethyl)biphenyl-3-yl]methyl}-L-α-glutamine]: 470 nM.
